Test results taken from the Kinase Knowledgebase extract (Sharma et al. 2016).

Target: ROCK2 (human) (UniProt O75116)
Test: Assessment of ROCK2 Kinase Activity by Luciferase Assay

Chain of ROCK2 (human) (O75116 whole entry, looked up): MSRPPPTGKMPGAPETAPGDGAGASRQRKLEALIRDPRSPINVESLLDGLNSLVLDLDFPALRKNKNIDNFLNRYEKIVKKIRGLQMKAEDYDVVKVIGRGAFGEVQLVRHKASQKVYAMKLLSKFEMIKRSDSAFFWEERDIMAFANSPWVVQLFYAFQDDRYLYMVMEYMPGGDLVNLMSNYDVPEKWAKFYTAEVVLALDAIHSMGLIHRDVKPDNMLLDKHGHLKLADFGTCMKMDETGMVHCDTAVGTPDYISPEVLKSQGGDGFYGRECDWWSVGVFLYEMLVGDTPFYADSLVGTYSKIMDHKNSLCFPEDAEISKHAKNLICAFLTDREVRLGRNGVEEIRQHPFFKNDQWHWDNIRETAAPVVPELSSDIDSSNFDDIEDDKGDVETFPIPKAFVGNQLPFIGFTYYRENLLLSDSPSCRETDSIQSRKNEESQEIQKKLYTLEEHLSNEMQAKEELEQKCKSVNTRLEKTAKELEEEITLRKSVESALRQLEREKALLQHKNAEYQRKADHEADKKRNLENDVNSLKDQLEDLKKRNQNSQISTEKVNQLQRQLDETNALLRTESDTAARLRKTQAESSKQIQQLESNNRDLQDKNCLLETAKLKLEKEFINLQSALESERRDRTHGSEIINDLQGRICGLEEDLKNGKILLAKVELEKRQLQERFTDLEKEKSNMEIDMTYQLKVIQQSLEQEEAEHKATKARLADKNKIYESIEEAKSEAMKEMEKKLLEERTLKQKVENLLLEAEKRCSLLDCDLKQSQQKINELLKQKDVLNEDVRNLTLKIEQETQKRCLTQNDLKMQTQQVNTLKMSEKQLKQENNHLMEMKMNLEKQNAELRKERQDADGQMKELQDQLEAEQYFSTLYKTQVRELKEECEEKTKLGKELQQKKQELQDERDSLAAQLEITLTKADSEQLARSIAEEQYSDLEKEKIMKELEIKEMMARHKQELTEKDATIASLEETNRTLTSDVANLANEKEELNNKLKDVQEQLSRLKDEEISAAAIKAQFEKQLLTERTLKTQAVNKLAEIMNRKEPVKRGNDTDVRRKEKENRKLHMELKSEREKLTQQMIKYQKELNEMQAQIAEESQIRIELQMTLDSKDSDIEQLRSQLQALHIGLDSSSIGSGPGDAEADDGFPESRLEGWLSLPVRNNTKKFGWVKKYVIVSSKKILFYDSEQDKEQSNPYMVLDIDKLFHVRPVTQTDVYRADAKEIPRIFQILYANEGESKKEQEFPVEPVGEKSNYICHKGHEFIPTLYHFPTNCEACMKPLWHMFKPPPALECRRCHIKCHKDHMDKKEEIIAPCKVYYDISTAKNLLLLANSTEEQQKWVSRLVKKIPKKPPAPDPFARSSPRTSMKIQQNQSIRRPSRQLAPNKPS

Row | SMILES | IC50 | Kd
1 | COc1ccc(C(=O)NCc2cccc(C(=O)Nc3ccc4c(c3)CCNC4)c2)cc1OC | 0.1 µM | 
2 | COc1ccc(C(=O)NCc2cccc(C(=O)NCC3CCCO3)c2)cc1OC (stereo unspecified) | 1200 µM | 
3 | CN(C)Cc1ccc(NC(=O)c2cccc(CNC(=O)Nc3ccc(C#N)c(Cl)c3)c2)cc1 | 0.01 µM | 
4 | CN(C)Cc1ccc(NC(=O)c2cccc(CNC(=O)c3ccc(OC(F)(F)F)c(Cl)c3)c2)cc1 | 0.67 µM | 
5 | COc1ccc(C(=O)NCc2cccc(C(=O)NCCC3CCCNC3)c2)cc1OC (stereo unspecified) |  | 0.018 µM
6 | COc1ccc(C(=O)NCc2cccc(C(=O)NCCC3CCCN(C)C3)c2)cc1OC (stereo unspecified) | 0.102 µM | 
7 | COc1ccc(NC(=O)NCc2cccc(C(=O)NCCC3CCCNC3)c2)cc1OC (stereo unspecified) | 1.6 µM | 
8 | COc1ccc(NC(=O)Cc2cccc(NC(=O)CCC3CCCNC3)c2)cc1OC (stereo unspecified) | 0.037 µM | 
9 | COc1ccc(CC(=O)Nc2cccc(C(=O)NCCC3CCCNC3)c2)cc1OC (stereo unspecified) | 3.2 µM | 
10 | COc1ccc(C(=O)NCc2cccc(C(=O)Nc3ccc4c(c3)CNCC4)c2)cc1OC |  | 0.007 µM
11 | COc1ccc(C(=O)NCc2cccc(C(=O)Nc3ccc4cnccc4c3)c2)cc1OC | 0.685 µM | 

The next lines start with the values.

Row | IC50 | Kd | SMILES
12 | 0.11 µM |  | N#Cc1ccc(NC(=O)NCc2cccc(NC(=O)CCC3CCCNC3)c2)cc1 (stereo unspecified)
13 | 0.24 µM |  | CN(C)Cc1ccc(NC(=O)c2cccc(CNC(=O)Nc3cccc(C(N)=O)c3)c2)cc1
14 | 0.008 µM |  | CN(C)Cc1ccc(NC(=O)c2cccc(CNC(=O)Nc3ccc(C(N)=O)cc3)c2)cc1
15 | 0.065 µM |  | N#Cc1ccc(NC(=O)NCc2cccc(C(=O)NCCC3CCNCC3)c2)cc1
16 | 0.07 µM |  | N#Cc1ccc(NC(=O)NCc2cccc(C(=O)Nc3ccc(CN)cc3)c2)cc1
17 | 0.074 µM |  | CN(C)Cc1ccc(NC(=O)c2cccc(CNC(=O)Nc3ccc(C(N)=O)c(Cl)c3)c2)cc1
18 | 1.3 µM |  | COc1ccc(C(=O)NCc2cccc(C(=O)Nc3ccc(CN(C)C)cc3)c2)cc1
19 | 1.7 µM |  | CN(C)Cc1ccc(NC(=O)c2cccc(CNC(=O)c3ccc(C#N)cc3)c2)cc1
20 | 0.16 µM |  | COc1ccc(C(=O)NCc2cccc(C(=O)Nc3ccc(CN(C)C)cc3)c2)cc1C(F)(F)F
21 | 0.266 µM |  | COc1ccc(C(=O)NCc2cccc(C(=O)Nc3ccc(CN(C)C)cc3)c2)cc1C
